For this data set the following is noted: in water.

The record followed here is BigSolDB 2.1.

What is called solubility (mole fraction) is the moles of solute divided by all moles in the saturated solution. Take `CCn1cc(C(=O)O)c(=O)c2cc(F)c(N3CCNC(C)C3)c(F)c21` (stereo unspecified): the solubility (mole fraction) stood at 3.48e-05 (293.15 K); 3.77e-05 (298.15 K); 4.33e-05 (303.15 K); 4.9e-05 (308.15 K); 5.63e-05 (313.15 K); 6.54e-05 (318.15 K). In addition, the solubility (mole fraction) (323.15 K) came out at 7.57e-05.
Turning to `CCn1cc(C(=O)O)c(=O)c2cc(F)c(N3CCNCC3)cc21`, the solubility (mole fraction) amounted to 2.02e-05 (293.15 K); 2.27e-05 (298.15 K); 2.54e-05 (303.15 K); 2.92e-05 (308.15 K); 3.38e-05 (313.15 K); 3.93e-05 (318.15 K). Besides, the solubility (mole fraction) (323.15 K) was determined as 4.69e-05.
As to `CCn1cc(C(=O)O)c(=O)c2cnc(N3CCNCC3)nc21`, the solubility (mole fraction) was determined as 1.85e-05 (293.15 K); 2.04e-05 (298.15 K); 2.3e-05 (303.15 K); 2.63e-05 (308.15 K); 3.02e-05 (313.15 K); 3.4e-05 (318.15 K). This compound also yielded a solubility (mole fraction) (323.15 K) of 3.83e-05.
